Reference: patent US9221868B2, “Uridine di- or tri-phosphate derivatives and uses thereof” (BAR-ILAN UNIVERSITY, priority 2010, dated 2015)
Values joined by “and” are separate entries in the source; they are usually repeats but may differ in a detail not shown here. Equal values may be shown once.

Assays:
human NPP3 = target: T1, human NPP3 (Homo sapiens, UniProt O14638); assay: Hydrolysis by NPP3 (HPLC); type: in vitro ADME; conditions: 3 h at 37° C., pH 8.5
T1 construct: Center of Research in Rheumatology and Immunology, Laval University (Québec, Canada), provided and not purchased
T1 sequence (O14638 1-875): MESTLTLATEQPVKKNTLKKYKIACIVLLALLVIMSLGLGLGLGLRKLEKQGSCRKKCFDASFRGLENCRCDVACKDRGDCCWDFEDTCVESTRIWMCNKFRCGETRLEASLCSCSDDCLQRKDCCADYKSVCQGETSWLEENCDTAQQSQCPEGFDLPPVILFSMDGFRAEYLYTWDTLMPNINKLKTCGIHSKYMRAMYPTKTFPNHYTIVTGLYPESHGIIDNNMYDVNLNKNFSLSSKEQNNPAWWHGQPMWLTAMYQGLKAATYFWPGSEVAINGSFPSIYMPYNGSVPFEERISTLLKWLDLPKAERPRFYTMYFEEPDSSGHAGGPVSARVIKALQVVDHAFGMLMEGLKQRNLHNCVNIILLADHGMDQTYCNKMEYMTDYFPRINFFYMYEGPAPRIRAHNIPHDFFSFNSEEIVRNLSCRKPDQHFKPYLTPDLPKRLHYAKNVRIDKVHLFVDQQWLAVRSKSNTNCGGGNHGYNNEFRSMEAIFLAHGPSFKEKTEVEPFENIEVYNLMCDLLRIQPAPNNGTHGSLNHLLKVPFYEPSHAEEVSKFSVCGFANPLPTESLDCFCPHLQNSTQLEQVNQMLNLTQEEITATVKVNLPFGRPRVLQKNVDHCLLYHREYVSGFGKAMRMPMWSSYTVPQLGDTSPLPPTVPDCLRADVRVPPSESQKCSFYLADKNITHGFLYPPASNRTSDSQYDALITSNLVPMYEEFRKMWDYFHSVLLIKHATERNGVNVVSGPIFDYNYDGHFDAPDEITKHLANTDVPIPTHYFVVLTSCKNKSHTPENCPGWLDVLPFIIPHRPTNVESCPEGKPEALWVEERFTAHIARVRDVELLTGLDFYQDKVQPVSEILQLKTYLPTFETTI
Description: (§1) All stability experiments were performed in duplicates.
(§2) In this study, the hydrolysis rate of analogue 13A as compared to UDP and analogue 12, by human NPP1 and NPP3 after incubation at 37° C. in appropriate buffer, was determined.
(§3) 56.15 μg or 57.78 μg of human NPP1 or NPP3 extract, respectively, was added to 0.575 ml the incubation mixture (1 mM […], 200 mM NaCl, 10 mM KCl and 100 mM Tris, pH 8.5) and preincubated at 37° C. for 3 min. Reaction was initiated by the addition of 0.015 ml of 4 mM of UDP, 12 or 13A. The reaction was stopped after incubation of 2 h or 3 h with NPP1 or NPP3, respectively, by transferring a 0.1 ml aliquot from the reaction mixture to 0.350 ml ice-cold 1 M perchloric acid. These samples were centrifuged for 1 min at 10000×g. Supernatants were neutralized with 1 M KOH in 4° C. and centrifuged 1 min at 10000×g. The reaction mixture was filtered and freeze-dried.

[1] = Stability in human blood serum (HPLC); conditions: for half-life at 0.14 mg/ml: human, human blood serum diluted in RPMI-1640
Description: Human blood serum was obtained from a blood bank (Tel-Hashomer Hospital, Israel). All stability experiments were performed in duplicates.
The assay mixture containing 0.1 mg each analogue in deionized water (4.5 μl), human blood serum (180 μl) and RPMI-1640 medium (540 μl) (Eliahu et al., 2010a) was incubated at 37° C. for 0-24 h. At 0.5-12 h intervals, each sample was heated to 80° C. for 30 min, treated with CM Sephadex (1-2 mg), shaken for 2 h and centrifuged for 6 min (12000 rpm), and the aqueous layer was collected and extracted with chloroform (2×500 μl). The aqueous layer was freeze-dried and then dissolved in deionized water (100 μl). Samples were loaded onto an activated Starta X-AW weak anion exchange cartridge, washed with H2O (1 ml) and eluted with MeOH:H2O (1:1, 1 ml) followed by NH4OH:MeOH:H2O (2:25:73, 1 ml), and then freeze-dried. The resulting residue was analyzed by HPLC on a Gemini analytical column (5μ C-18 557 110 A; 150 mm×4.60 mm), using gradient elution with solvent system I (for UDP and 12—A:B 96:4 over 10 min) or II (for uridine-5′-O-(α-borano diphosphate) and 13A—A:B 97.5:2.5 over 10 min) at a flow rate of 1 ml/min. […] The percentage of compound degradation was calculated vs. control, to take into consideration the degradation of the compounds due to the work up following the enzymatic reaction. Therefore, each of the samples was compared to a control which was put through the same workup, but to which no serum was added. The percentage of degradation was calculated from the area under the curve of the nucleoside monophosphate peak, after subtraction of the control, which is the amount of the nucleoside monophosphate peak formed due to chemical hydrolysis.

human NPP1 = target: T2, human NPP1 (Homo sapiens, UniProt P22413); assay: Hydrolysis by NPP1 (HPLC); type: in vitro ADME; conditions: 2 h at 37° C., pH 8.5
T2 construct: Center of Research in Rheumatology and Immunology, Laval University (Québec, Canada), provided and not purchased
T2 sequence (P22413 1-925): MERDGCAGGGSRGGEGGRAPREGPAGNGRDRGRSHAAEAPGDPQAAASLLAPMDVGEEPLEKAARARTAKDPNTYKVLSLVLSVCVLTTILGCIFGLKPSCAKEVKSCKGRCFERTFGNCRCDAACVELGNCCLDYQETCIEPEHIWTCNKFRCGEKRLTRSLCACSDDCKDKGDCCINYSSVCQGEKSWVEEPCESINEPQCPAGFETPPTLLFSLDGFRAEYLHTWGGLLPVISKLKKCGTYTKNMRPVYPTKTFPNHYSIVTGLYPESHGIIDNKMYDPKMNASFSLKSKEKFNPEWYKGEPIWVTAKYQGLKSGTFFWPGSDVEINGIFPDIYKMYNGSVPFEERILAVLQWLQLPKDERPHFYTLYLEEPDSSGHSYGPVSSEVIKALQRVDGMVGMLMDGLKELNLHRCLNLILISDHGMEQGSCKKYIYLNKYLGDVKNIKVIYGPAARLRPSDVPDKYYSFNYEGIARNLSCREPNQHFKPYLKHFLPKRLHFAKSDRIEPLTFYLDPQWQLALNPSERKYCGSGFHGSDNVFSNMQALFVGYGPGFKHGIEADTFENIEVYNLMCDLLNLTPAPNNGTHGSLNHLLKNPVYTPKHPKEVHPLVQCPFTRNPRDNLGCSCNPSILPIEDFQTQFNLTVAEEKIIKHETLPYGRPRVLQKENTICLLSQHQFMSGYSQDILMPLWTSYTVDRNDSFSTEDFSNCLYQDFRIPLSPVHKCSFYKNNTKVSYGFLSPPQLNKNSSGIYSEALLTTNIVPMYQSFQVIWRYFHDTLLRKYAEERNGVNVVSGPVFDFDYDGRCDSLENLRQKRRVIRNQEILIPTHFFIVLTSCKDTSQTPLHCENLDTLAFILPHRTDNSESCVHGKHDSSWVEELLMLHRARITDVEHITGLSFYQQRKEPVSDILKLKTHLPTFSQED
Description: as §1, §2, §3

physchem = conditions: for half-life / Half-life (t1/2) of hydrolysis at pH 1.4: buffer, pH 1.4; for Rate constant of phosphate ester hydrolysis at pH 1.4: pH 1.4, 37° C., pseudo-first-order
Description: as §1
The stability of UDP, 11, 12 and 13A in a buffer solution (pH 1.4) was evaluated by ^31P NMR at 37° C. for monitoring possible dephosphorylation products (the signal of the phosphate hydrolysis products is at ˜0 ppm, while that of the borano phosphate analogues is at ˜85 ppm). NMR spectra were recorded on a Bruker DMX-600 spectrometer with a ^31P NMR probe (isotope frequency of 240 MHz) using 85% H3PO4 as an external reference.
Sodium salts of UDP, 11, 12 and 13A were dissolved in 0.45 ml of KCl/HCl buffer (pH 1.4) and D2O (0.05 ml) was added. The final pH was adjusted to pH 1.4. pH measurements were performed with an Metrohm pH electrode and a Metrohm 827 meter. Spectra were recorded at 15 min, 1 h, or 24 h time intervals at 37° C. For experiments that were several days long, the solution was kept in an oil bath at 37° C. and spectra were recorded at ca. 24 h time intervals. The phosphate ester hydrolysis rate was determined by measuring the change of the integration of one of the phosphates signals of the starting material with time.

Row | Structure (SMILES) | Hydrolysis percentage by NPP3 (human NPP3) | half-life at 0.14 mg/ml [1] | Hydrolysis percentage by NPP1 (human NPP1) | half-life (physchem) | Half-life (t1/2) of hydrolysis at pH 1.4 (physchem) | Rate constant of phosphate ester hydrolysis at pH 1.4 (physchem) | Half-life in human blood serum ([1]; human blood serum and RPMI-1640, 37° C.)
1 | [BH3-][P+](O)(OCC1OC(n2cc(OC)c(=O)[nH]c2=O)C(O)C1O)OP(=O)(O)O (single isomer, unassigned) [Analogue 13A, 5-methoxyuridine-5′-O-(α-boranodiphosphate)] | 28% | 17 h | 15% | 16.9 h | – | – | –
2 | COc1cn([C@@H]2O[C@H](COP(=O)(O)OP(=O)(O)O)[C@@H](O)[C@H]2O)c(=O)[nH]c1=O [Analogue 12, 5-methoxyuridine diphosphate] | 36% | 11.9 h | 49% and 51% | ~312 h | 13 days | 6.25×10^−7 s^−1 | –
3 | O=c1ccn([C@@H]2O[C@H](COP(=O)(O)OP(=O)(O)O)[C@@H](O)[C@H]2O)c(=O)[nH]1 [UDP, reference compound] | 45% | – | 50% | – | ~12 days | 6.66×10^−7 s^−1 | 2.4 h
